According to patent US20240043408A1, “CRYSTAL FORM OF FIBROBLAST GROWTH FACTOR RECEPTOR INHIBITOR AND PREPARATION METHOD THEREFOR” (Transthera Sciences (Nanjing), Inc., priority 2020, published 2024):
Where two headings read alike, the source gives them in different places. Values belong to the compound of their own block, whether it stands above or below them.

What was measured:
SNU-16 cells = test: Cell viability assay (Cell titer-Glo, 72 h); format: cell-based; conditions: for IC50: SNU-16 gastric cancer cells with FGFR abnormalities, 72 h, Cell titer-Glo, read-out: Inhibitory activity (nM) on SNU-16 cells (IC50)
Experimental: SNU-16 is a gastric cancer cell with FGFR abnormalities.
Instrument: Espire multi-functional microplate reader
SNU-16 cells were seeded in a 96-well plate for adherent culture overnight, and then compounds at different concentrations (12 dose groups, serial 3-fold dilution with DMSO) were added to give final concentrations of 0.17-30000 nM, wherein the final DMSO content was 5%. Negative control wells contained a 5% DMSO medium. The plate was incubated at 37° C., 5% CO2 and 95% humidity for 72 h for later test. 30 μL of Cell titer-Glo reagent was added to each well, and after the plate was incubated at room temperature for 30 min, the final data were read by Espire.

[1] = Stability test of amorphous form and crystal form I at 105° C. and 60° C.; format: physicochemical
Experimental: The “destructive impurity” described herein refers to an additional peak in a liquid chromatogram of a sample in a stability test compared with the liquid chromatogram of the sample on day 0.
The bottles were let stand at 105° C. (samples were taken on days 3, 5 and 10) and at 60° C. (samples were taken on days 10, 20 and 30). The taken samples were investigated for changes in appearance, related substances and form.
Proper amounts of amorphous form samples of the compound (I) were placed into weighing bottles. The bottles were let stand at 105° C. (samples were taken on days 3, 5 and 10) and at 60° C. (samples were taken on days 10, 20 and 30). The taken samples were investigated for changes in appearance, related substances.

[2] = Stability test of crystal form I under influencing factors (60° C., RH 92.5%, RH 75%, illumination); format: physicochemical
Description: Samples were taken on days 0, 4 and 10, and investigated for changes in properties and purity.

[3] = 60° C., Day 10, additional HPLC peaks vs day 0
[4] = Illumination (≥4500±500 Lux), Day 4
[5] = Illumination (≥4500±500 Lux), Day 10

Appearance ([1]; 60° C., Day 10): Pale yellow powder
Related substances (%) ([1]; 60° C., Day 10): 0.73%
Destructive impurity (%) [1, 3]: 0.06%
Appearance ([1]; 60° C., Day 20): Pale yellow powder
Related substances (%) ([1]; 60° C., Day 20): 0.72%
Appearance ([1]; 60° C., Day 30): Pale yellow powder
Related substances (%) ([1]; 60° C., Day 30): 0.75%
Appearance ([1]; 105° C., Day 3): Pale yellow powder
Related substances (%) ([1]; 105° C., Day 3): 1.3%
Appearance ([1]; 105° C., Day 5): Pale yellow powder
Related substances (%) ([1]; 105° C., Day 5): 1.6%
Appearance ([1]; 105° C., Day 10): Pale yellow powder
Related substances (%) ([1]; 105° C., Day 10): 2.5%
Appearance ([1]; Day 0): Pale yellow powder
Destructive impurity (%) ([1]; Day 0): None
Related substances (%) ([1]; Day 0): 0.62%
Number of destructive impurities detected (HPLC) ([1]; stored at 60° C. for 30 days): 2
Number of destructive impurities detected (HPLC) ([1]; stored at 105° C. for 10 days): 7
SMILES: C=CC(=O)N1C[C@@H](Nc2ncc3cc(-c4c(Cl)c(OC)cc(OC)c4Cl)ccc3n2)C[C@H]1CO [Amorphous form, 1-((2S,4S)-4-((6-(2,6-dichloro-3,5-dimethoxyphenyl)quinazolin-2-yl)amino)-2-(hydroxymethyl)pyrrolidin-1-yl)prop-2-en-1-one]
IC50 (SNU-16 cells; Homo sapiens, SNU-16, 72 h): 11 nM

Appearance ([1]; 60° C., Day 10): Off-white powder
Form (XRPD) ([1]; 60° C., Day 10): Crystal form I
Related substances (%) ([1]; 60° C., Day 10): 0.64%
Destructive impurity (%) [1, 3]: Undetectable
Appearance ([1]; 60° C., Day 20): Off-white powder
Form (XRPD) ([1]; 60° C., Day 20): Crystal form I
Related substances (%) ([1]; 60° C., Day 20): 0.64%
Destructive impurity (%) ([1]; 60° C., Day 20, additional HPLC peaks vs day 0): Undetectable
Appearance ([1]; 60° C., Day 30): Off-white powder
Form (XRPD) ([1]; 60° C., Day 30): Crystal form I
Related substances (%) ([1]; 60° C., Day 30): 0.68%
Destructive impurity (%) ([1]; 60° C., Day 30, additional HPLC peaks vs day 0): Undetectable
Appearance ([1]; 105° C., Day 3): Off-white powder
Form (XRPD) ([1]; 105° C., Day 3): Crystal form I
Related substances (%) ([1]; 105° C., Day 3): 0.62%
Destructive impurity (%) ([1]; 105° C., Day 3, additional HPLC peaks vs day 0): Undetectable
Appearance ([1]; 105° C., Day 5): Off-white powder
Form (XRPD) ([1]; 105° C., Day 5): Crystal form I
Related substances (%) ([1]; 105° C., Day 5): 0.60%
Destructive impurity (%) ([1]; 105° C., Day 5, additional HPLC peaks vs day 0): Undetectable
Appearance ([1]; 105° C., Day 10): Off-white powder
Form (XRPD) ([1]; 105° C., Day 10): Crystal form I
Related substances (%) ([1]; 105° C., Day 10): 0.63%
Destructive impurity (%) ([1]; 105° C., Day 10, additional HPLC peaks vs day 0): Undetectable
Appearance ([1]; Day 0): Off-white powder
Destructive impurity (%) ([1]; Day 0): None
Form (XRPD) ([1]; Day 0): Crystal form I
Related substances (%) ([1]; Day 0): 0.64%
Change of appearance, related substances and form ([1]; after storage at 105° C. for 10 days and at 60° C. for 30 days): did not change significantly
Appearance ([2]; 60° C., Day 4, open bottle): Off-white powder
Purity % ([2]; 60° C., Day 4, open bottle): 99.6%
Appearance ([2]; 60° C., Day 10, open bottle): Off-white powder
Purity % ([2]; 60° C., Day 10, open bottle): 99.6%
Appearance ([2]; 75% RH, Day 4, open bottle): Off-white powder
Purity % ([2]; 75% RH, Day 4, open bottle): 99.6%
Appearance ([2]; 75% RH, Day 10, open bottle): Off-white powder
Purity % ([2]; 75% RH, Day 10, open bottle): 99.6%
Appearance ([2]; 92.5% RH, Day 4, open bottle): Off-white powder
Purity % ([2]; 92.5% RH, Day 4, open bottle): 99.6%
Appearance ([2]; 92.5% RH, Day 10, open bottle): Off-white powder
Purity % ([2]; 92.5% RH, Day 10, open bottle): 99.6%
Appearance ([2]; Day 0): Off-white powder
Purity % ([2]; Day 0): 99.6%
Appearance [2, 4]: Off-white powder
Purity % [2, 4]: 99.6%
Appearance [2, 5]: Pale yellow powder
Purity % [2, 5]: 99.5%
Change of appearance and purity ([2]; after 10 days in various influencing factor conditions): did not change significantly
SMILES: C=CC(=O)N1C[C@@H](Nc2ncc3cc(-c4c(Cl)c(OC)cc(OC)c4Cl)ccc3n2)C[C@H]1CO [Crystal form I, 1-((2S,4S)-4-((6-(2,6-dichloro-3,5-dimethoxyphenyl)quinazolin-2-yl)amino)-2-(hydroxymethyl)pyrrolidin-1-yl)prop-2-en-1-one]
Inhibitory activity on SNU-16 cells (in words) (SNU-16 cells; SNU-16 cells with FGFR abnormalities): good inhibitory activity
IC50 (SNU-16 cells): 9.5 nM
